Calls of active or inactive are those of the source.
What was measured:
[1] = molecular target: T1, Apoptotic protease-activating factor 1 (Homo sapiens, UniProt O14727); test: SAR analysis of small molecule Activators of Apaf-1 in a Fluorescent assay.; type: functional; settings: read-out: EC50_Mean;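 note: caspase-3 cleavage of fluorogenic Rh110 DEVD substrate downstream of apoptosome activation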
T1 sequence (O14727 whole entry): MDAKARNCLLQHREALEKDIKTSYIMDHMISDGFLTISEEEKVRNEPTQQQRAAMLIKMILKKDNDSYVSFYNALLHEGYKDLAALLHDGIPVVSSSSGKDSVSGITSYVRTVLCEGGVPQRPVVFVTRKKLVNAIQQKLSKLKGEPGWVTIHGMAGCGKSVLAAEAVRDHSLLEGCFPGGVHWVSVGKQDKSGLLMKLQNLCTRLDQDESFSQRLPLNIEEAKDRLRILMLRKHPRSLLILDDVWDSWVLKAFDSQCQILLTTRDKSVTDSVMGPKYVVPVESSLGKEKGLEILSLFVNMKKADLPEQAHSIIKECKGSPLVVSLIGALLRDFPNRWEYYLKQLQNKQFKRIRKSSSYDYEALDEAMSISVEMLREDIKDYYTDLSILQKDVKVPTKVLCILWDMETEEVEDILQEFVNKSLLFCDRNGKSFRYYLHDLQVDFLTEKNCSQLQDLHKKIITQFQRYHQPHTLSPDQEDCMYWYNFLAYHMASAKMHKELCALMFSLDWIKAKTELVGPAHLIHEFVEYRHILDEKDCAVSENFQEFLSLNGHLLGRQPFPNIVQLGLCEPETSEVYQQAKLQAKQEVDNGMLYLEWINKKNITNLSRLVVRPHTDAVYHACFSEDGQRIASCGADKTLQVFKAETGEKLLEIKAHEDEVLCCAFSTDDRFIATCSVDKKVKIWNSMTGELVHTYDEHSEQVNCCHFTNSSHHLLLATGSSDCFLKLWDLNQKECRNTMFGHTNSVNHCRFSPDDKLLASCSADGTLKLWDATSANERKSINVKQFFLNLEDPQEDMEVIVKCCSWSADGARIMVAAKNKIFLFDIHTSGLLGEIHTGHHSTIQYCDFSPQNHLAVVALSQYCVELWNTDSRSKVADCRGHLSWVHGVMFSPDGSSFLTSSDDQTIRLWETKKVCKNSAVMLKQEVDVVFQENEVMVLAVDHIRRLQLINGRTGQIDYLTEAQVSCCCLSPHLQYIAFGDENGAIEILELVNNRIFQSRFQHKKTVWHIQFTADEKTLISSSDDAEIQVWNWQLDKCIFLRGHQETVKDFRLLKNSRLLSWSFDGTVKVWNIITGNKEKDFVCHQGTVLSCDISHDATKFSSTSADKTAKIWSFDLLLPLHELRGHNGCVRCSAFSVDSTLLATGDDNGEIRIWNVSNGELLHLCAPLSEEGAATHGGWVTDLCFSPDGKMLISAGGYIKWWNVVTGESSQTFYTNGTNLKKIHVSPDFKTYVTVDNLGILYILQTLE

Cysteine protease ATG4B = molecular target: T2, Cysteine protease ATG4B (Homo sapiens, UniProt Q9Y4P1); type: functional;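 note: Fluorescence-based dose-response confirmation assay measuring inhibition of ATG4B activity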
T2 sequence (Q9Y4P1 whole entry): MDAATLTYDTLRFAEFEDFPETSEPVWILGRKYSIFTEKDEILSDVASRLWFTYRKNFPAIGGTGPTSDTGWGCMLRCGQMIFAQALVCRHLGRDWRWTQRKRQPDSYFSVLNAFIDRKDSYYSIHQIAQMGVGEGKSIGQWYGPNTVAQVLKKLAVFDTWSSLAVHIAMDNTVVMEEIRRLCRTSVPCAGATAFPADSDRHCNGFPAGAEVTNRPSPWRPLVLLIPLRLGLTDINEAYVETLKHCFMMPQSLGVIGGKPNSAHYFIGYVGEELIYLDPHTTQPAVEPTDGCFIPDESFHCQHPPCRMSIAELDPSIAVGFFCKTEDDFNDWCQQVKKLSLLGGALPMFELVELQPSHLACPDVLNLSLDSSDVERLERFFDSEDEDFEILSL

Streptokinase A = molecular target: T3, Streptokinase A (Streptococcus pyogenes serotype M1, UniProt P10520); test: S. pyogenes streptokinase expression inhibitors, potency, dose response, plasminogen activation absorbance, OD405 (AID 1914); type: functional, Streptococcus pyogenes M1 GAS;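 note: secreted streptokinase activity via plasminogen activation per viability signal from cell pellet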
T3 sequence (P10520 whole entry): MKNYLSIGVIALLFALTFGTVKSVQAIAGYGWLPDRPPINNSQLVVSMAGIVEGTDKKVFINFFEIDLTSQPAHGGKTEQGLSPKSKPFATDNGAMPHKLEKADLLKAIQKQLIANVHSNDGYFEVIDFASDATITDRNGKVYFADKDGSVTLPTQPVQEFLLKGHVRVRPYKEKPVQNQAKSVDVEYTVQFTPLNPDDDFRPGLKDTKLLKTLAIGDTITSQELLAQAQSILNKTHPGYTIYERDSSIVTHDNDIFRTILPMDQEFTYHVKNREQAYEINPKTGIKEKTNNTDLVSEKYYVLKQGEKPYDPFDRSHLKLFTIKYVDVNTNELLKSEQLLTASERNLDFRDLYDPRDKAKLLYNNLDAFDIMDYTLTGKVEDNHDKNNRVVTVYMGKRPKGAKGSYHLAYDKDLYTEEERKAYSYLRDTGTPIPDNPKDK

Streptococcus = test: Group A Streptococcus viability loss, dose response, counter-screen for streptokinase expression inhibitor project, luminescence, BacTiterGlo (AID 1915); type: functional, organism-based;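 note: potency for reduction of bacterial viability or growth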
[2] = HEp-2 cell cytotoxicity, dose response, cytotoxicity control for RSV inhibitor project, HTS (AID 2410); type: functional; settings: human respiratory syncytial virus
[3] = molecular target: DNA (cytosine-5)-methyltransferase 1 (Homo sapiens, UniProt P26358); test: DNMT1 methyltransferase inhibitors, confirmation, biochemical, fluorescent molecular beacon (AID 602386); type: functional
Sequence of DNA (cytosine-5)-methyltransferase 1 (P26358 whole entry): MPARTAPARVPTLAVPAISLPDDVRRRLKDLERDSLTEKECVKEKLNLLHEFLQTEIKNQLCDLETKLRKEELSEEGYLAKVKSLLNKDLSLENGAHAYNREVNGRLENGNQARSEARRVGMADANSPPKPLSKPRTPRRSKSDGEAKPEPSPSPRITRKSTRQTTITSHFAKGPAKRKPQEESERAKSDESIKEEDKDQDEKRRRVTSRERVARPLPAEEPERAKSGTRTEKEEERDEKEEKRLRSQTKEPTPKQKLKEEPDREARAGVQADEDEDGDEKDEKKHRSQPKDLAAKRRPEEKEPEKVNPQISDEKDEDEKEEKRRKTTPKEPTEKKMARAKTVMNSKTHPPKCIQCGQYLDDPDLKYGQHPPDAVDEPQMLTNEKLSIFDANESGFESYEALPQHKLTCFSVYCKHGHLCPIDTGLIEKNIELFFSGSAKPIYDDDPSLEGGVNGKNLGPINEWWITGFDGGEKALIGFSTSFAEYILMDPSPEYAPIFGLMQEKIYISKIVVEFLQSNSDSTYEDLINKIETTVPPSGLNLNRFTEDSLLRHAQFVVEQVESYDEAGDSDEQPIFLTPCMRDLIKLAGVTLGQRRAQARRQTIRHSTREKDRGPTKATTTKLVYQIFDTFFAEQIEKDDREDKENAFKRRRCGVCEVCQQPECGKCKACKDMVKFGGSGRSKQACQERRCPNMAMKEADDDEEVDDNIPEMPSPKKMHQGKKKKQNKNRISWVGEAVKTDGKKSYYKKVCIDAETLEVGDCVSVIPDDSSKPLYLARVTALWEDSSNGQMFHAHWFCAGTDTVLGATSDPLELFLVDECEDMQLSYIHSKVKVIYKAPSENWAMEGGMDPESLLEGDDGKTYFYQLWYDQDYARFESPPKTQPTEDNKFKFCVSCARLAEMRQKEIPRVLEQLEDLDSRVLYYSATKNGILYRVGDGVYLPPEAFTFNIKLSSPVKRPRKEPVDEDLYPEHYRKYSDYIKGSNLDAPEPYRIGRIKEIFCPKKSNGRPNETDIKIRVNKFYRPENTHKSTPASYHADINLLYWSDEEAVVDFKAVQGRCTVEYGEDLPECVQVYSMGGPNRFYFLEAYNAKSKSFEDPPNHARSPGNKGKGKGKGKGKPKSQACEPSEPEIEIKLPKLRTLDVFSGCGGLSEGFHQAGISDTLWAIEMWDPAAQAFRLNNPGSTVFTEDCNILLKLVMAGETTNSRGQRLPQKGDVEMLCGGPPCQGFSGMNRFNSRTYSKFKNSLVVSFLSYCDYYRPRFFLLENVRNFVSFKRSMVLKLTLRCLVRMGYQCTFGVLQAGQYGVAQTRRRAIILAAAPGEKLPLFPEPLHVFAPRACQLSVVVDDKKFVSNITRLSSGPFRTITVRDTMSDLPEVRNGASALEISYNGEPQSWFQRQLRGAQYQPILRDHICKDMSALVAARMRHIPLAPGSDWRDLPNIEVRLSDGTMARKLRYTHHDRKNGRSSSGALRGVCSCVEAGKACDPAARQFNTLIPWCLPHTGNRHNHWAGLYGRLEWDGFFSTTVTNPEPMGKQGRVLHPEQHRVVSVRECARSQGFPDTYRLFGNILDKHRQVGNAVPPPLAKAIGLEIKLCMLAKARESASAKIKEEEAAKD

Phospholipase A2 = Phospholipase A2 (Homo sapiens, UniProt P04054); type: functional;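 note: confirmatory dose-response counterscreen on phospholipase A2, testing hits that came from an ultra-high-throughput screen for ATG4B inhibitors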
Sequence of Phospholipase A2 (P04054 whole entry): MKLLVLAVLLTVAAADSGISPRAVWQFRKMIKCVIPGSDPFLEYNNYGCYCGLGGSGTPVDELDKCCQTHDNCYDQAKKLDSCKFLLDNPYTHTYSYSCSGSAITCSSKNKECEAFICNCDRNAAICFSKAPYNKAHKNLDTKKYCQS

Genome polyprotein = Genome polyprotein (dengue virus type 2, UniProt P29990); test: Dengue-2 NS5 methyltransferase inhibitors, primary screen, biochemical, confirmation dose response (AID 588689); type: functional
Sequence of Genome polyprotein (P29990 2492-3391 limits assumed): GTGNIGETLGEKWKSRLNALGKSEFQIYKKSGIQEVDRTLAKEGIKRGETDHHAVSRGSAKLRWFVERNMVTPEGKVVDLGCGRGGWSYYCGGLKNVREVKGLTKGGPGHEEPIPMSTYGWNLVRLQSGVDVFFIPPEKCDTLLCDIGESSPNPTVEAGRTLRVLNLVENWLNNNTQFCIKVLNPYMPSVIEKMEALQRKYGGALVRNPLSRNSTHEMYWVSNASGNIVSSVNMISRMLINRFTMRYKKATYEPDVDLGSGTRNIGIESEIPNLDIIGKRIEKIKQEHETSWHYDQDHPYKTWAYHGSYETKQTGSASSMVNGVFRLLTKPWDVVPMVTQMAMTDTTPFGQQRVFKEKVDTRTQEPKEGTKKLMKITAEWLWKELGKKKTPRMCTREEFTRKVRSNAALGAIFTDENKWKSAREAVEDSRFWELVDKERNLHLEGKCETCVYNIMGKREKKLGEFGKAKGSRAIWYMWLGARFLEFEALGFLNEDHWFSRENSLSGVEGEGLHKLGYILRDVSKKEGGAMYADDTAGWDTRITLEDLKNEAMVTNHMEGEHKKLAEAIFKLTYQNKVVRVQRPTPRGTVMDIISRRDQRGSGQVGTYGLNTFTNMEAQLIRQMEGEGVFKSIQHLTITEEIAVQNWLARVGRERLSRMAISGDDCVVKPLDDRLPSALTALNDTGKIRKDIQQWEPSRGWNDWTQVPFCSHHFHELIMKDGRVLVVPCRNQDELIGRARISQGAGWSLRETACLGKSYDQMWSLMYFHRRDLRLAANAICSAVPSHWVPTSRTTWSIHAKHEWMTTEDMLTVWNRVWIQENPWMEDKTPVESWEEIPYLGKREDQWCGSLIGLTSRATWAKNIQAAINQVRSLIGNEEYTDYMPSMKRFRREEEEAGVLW

[4] = molecular target: FAD-linked sulfhydryl oxidase ALR (Homo sapiens, UniProt P55789); test: inhibitors of human ALR sulfhydryl oxidase, dose response, biochemical, H2O2 detection, luminescence, cherry-pick (AID 493248)
Sequence of FAD-linked sulfhydryl oxidase ALR (P55789 whole entry): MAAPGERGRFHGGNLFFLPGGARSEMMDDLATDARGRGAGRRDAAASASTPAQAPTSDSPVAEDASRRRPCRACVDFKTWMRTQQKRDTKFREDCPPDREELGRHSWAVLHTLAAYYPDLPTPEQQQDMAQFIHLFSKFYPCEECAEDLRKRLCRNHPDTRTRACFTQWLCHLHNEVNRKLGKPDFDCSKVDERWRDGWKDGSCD

[5] = system: Streptococcus sp. 'group A'; test: growth inhibition of control SK(-) GAS strain, dose response, counter-screen for streptokinase expression inhibitor project, luminescence, kanamycin, BacTiterGlo, confirmation (AID 1900); type: functional, organism-based
[6] = molecular target: T4, Corticotropin-releasing factor receptor 2/Corticotropin-releasing factor-binding protein (Homo sapiens, UniProt P24387+Q13324); test: Dose Response confirmation of uHTS hits for small molecule antagonists of the CRF-binding protein and CRF-R2 receptor complex.; type: functional; settings: read-out: IC50_Mean
T4 sequence (Q13324 whole entry): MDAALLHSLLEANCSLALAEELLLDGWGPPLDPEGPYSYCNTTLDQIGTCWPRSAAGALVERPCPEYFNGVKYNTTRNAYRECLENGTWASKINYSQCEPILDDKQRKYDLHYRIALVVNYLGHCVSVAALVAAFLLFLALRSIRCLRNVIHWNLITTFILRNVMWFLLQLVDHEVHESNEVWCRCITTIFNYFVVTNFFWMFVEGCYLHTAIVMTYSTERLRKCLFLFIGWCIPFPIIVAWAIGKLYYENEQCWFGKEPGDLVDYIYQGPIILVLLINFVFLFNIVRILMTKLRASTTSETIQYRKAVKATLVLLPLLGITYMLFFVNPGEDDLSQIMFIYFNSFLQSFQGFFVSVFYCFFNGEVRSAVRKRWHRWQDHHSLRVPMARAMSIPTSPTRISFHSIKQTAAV
T4 sequence (P24387 whole entry): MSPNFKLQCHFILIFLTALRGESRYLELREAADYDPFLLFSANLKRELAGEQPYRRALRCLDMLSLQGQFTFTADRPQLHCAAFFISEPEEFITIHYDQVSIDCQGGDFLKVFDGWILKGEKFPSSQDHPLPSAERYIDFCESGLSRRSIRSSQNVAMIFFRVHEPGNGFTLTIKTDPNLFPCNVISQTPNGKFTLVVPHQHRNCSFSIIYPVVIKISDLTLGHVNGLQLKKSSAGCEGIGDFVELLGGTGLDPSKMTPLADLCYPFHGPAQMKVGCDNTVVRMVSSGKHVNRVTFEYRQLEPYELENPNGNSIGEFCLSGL

[7] = molecular target: T4, Corticotropin-releasing factor receptor 2/Corticotropin-releasing factor-binding protein; test: activators of CRF receptor 2 with binding protein – uHTS hits, confirmation (AID 602473); type: functional; settings: read-out: EC50_Mean
[8] = molecular target: Adenosylmethionine-8-amino-7-oxononanoate aminotransferase (Mycobacterium tuberculosis, UniProt P9WQ81); test: Mycobacterium tuberculosis BioA enzyme inhibitor Measured in Biochemical System Using Plate Reader - 2163-02_Inhibitor_Dose_CherryPick_Activity.; type: functional, Mycobacterium tuberculosis UT205
Sequence of Adenosylmethionine-8-amino-7-oxononanoate aminotransferase (P9WQ81 whole entry): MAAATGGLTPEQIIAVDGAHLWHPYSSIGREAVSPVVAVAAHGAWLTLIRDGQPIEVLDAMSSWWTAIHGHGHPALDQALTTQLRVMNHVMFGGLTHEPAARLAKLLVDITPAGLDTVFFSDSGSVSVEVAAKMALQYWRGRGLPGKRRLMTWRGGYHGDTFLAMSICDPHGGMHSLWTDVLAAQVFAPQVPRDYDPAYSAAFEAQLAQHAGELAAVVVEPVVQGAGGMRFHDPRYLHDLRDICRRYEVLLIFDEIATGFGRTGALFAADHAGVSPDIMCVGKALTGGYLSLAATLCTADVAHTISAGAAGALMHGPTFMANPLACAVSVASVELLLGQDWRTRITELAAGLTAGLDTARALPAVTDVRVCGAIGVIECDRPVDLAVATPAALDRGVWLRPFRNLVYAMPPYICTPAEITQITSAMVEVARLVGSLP

[9] = growth suppression of beta-catenin-knockout colon cells, dose response, cell-based, HCT116, human colon tumor (AID 1045); type: functional;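 note: HCT116 colon tumor cells with beta catenin knocked out; cells exposed to compound for 60 hours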
[10] = growth suppression of PTEN-null colon cells, dose response, cell-based, HCT116 PTEN knockout (AID 1047); type: functional;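 note: HCT116 colon tumor cells with PTEN knocked out; cells exposed to compound for 60 hours before readout; potency for loss of cell viability measured by luminescence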
[11] = molecular target: T5, Orexin/Hypocretin receptor type 1 (Homo sapiens, UniProt O43613); test: Homogeneous Time Resolved Fluorescence (HTRF)-based cell-based high throughput dose response assay for antagonists of the orexin 1 receptor (OX1R; HCRTR1). [Related pubchem assays (depositor defined):AID434989, AID435008, AID463079, AID485270, AID492963, AID492964, AID492965, AID493232, AID504717, AID504718]; type: functional
T5 sequence (O43613 whole entry): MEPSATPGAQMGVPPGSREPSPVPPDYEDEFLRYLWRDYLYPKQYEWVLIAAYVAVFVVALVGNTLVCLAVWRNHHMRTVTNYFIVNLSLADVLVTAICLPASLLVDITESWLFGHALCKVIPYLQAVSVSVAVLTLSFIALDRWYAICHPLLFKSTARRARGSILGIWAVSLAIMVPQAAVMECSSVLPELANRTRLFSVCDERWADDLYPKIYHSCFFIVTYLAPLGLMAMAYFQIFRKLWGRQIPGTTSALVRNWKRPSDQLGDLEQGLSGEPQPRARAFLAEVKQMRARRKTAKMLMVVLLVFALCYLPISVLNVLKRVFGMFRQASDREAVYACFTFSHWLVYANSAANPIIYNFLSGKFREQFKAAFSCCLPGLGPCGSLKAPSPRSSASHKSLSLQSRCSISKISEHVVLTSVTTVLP

Orexin receptor type 2 [12] = molecular target: T6, Orexin receptor type 2 (Homo sapiens, UniProt O43614); test: Counterscreen assay for antagonists of the orexin 1 receptor (OX1R; HCRTR1): Homogeneous Time Resolved Fluorescence (HTRF)-based cell-based dose response assay for antagonists of the orexin 2 receptor (OX2R; HCRTR2), run by assay provider.; type: functional
T6 sequence (O43614 whole entry): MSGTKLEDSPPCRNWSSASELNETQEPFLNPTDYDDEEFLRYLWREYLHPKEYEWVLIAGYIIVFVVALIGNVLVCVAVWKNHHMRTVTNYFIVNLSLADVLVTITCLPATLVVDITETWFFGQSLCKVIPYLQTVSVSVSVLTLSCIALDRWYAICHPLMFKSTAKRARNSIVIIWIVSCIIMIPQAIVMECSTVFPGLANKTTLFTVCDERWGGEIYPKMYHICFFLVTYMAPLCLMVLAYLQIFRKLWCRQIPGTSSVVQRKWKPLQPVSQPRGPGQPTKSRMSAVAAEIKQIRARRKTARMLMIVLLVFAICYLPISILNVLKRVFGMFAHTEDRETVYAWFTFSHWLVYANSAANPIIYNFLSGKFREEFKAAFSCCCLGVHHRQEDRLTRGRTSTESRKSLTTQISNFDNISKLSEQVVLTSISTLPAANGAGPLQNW

[13] = Counterscreen for antagonists of the orexin 1 receptor (OX1R; HCRTR1): Fluorescence-based cell-based high throughput dose response assay to identify antagonists of the parental CHO cell line. [Related pubchem assays (depositor defined):AID434989, AID435008, AID463079, AID485270, AID492963, AID492964, AID492965, AID493232, AID504699, AID504701]; type: functional
CHO-K1 = test: Counterscreen for antagonists of the orexin 1 receptor (OX1R; HCRTR1): Homogeneous time resolved fluorescence (HTRF)-based cell-based dose response assay to identify antagonists of the parental CHO-K1 cell line. [Related pubchem assays (depositor defined):AID434989, AID435008, AID463079, AID485270, AID492963, AID492964, AID492965, AID493232, AID504699, AID504701]; type: functional; settings: Cricetulus griseus;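 note: potency for inhibition of ATP-stimulated IP1 production as antagonists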
[14] = molecular target: T5, Orexin/Hypocretin receptor type 1; test: Fluorescence-based cell-based high throughput dose response assay for antagonists of the orexin 1 receptor (OX1R; HCRTR1). [Related pubchem assays (depositor defined):AID434989, AID435008, AID463079, AID485270, AID492963, AID492964, AID492965, AID493232, AID504717, AID504718]; type: functional
Orexin receptor type 2 [15] = molecular target: T6, Orexin receptor type 2; test: Counterscreen assay for antagonists of the orexin 1 receptor (OX1R; HCRTR1): Fluorescence-based cell-based dose response assay for antagonists of the orexin 2 receptor (OX2R; HCRTR2), run by assay provider.; type: functional
[16] = molecular target: Induced myeloid leukemia cell differentiation protein Mcl-1 (Homo sapiens, UniProt Q07820); type: functional
Sequence of Induced myeloid leukemia cell differentiation protein Mcl-1 (Q07820 whole entry): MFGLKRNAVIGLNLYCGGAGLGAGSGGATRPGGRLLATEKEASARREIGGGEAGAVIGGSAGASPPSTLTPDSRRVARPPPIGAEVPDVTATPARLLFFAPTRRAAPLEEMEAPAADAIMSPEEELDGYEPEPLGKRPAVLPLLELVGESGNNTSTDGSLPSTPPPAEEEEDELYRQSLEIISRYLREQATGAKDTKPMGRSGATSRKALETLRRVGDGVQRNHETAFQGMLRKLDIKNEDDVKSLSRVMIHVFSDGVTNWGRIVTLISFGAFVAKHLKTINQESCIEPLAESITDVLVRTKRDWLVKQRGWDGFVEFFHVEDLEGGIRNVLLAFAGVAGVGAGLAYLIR

O=C(C1CC(c2ccc(F)cc2)=NO1)N1CCCc2ccccc21 (stereo not given)
EC50 [1]: > 100 µM (inactive)

O=C(O)CN1C(=O)/C(=C\c2cc(Br)ccc2OCc2ccc(Cl)cc2)SC1=S
IC50 (Cysteine protease ATG4B): 7.13 µM (active)
EC50 (Streptokinase A): > 50 µM (not active)
EC50 (Streptococcus): 3.08 µM (active)
CC50 [2]: 14.9 µM (active)
IC50 [3]: 7.36 µM (active)
IC50 (Phospholipase A2): 4.68 µM (active)
IC50 (Genome polyprotein): 24.8 µM (active)
AC50 [4]: 1.58 µM (active)
EC50 [5]: 1.58 µM (active)

COc1ccc(/C=C2\CCc3ccccc3C2=O)c(OC)c1OC
IC50 (Cysteine protease ATG4B): 38.6 µM (inactive)
IC50 [6]: > 47.1 µM (inactive)
EC50 [7]: > 53 µM (inactive)
IC50 (Phospholipase A2): 31.7 µM (inactive)

Cc1nc(-c2cccnc2)sc1C(=O)Nc1cccc(C(F)(F)F)c1
AC50 [8]: 3.76 µM (active)
EC50 [9]: 26.8 µM (active)
EC50 [10]: 15.7 µM (active)

Sc1nnc(-c2cc(-c3ccccc3)[nH]n2)n1/N=C/c1c2ccccc2cc2ccccc12
IC50 [11]: 0.585 µM (active)
IC50 (Orexin receptor type 2 [12]): > 50 µM (inactive)
IC50 [13]: > 49.8 µM (inactive)
IC50 (CHO-K1): > 66.2 µM (inactive)
IC50 [14]: 23.7 µM (inactive)
IC50 (Orexin receptor type 2 [15]): > 88.8 µM (inactive)
IC50 [16]: 6.05 µM (not active)

COc1ccc(N2C(=O)CC3(CC(c4ccccc4F)=NO3)C2=O)cc1 (stereo not given)
EC50 [1]: > 100 µM (inactive)

Reference: ChEMBL document CHEMBL1201862, “PubChem BioAssay data set” (2004)
